Earlier results as cited in US20240316072A1, “THERAPEUTIC COMPOSITIONS, […] METHODS OF PREPARATION AND USE THEREOF” (Unique Flower LLC, priority 2023, published 2024).

Settings: administration of β-Myrcene in the amount of 0.5 mg/g or more; generally understood

Structure (SMILES): C=CC(=C)CCC=C(C)C [β-Myrcene]
- effect in a subject: heavy, narcotic, “couch lock” effect
